The supplement of paper PMC11061612

Legend:
Trametinib = compound: CC(=O)Nc1cccc(-n2c(=O)n(C3CC3)c(=O)c3c(Nc4ccc(I)cc4F)n(C)c(=O)c(C)c32)c1 [Trametinib]; conditions: max 1 µM
Method in brief: (§1)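 In 1536-well plates, cancer cell lines in 7.5 μl DMEM/F12 or RPMI with 10% FBS spent 24 hours at 37°C and 5% CO2 and were then dosed for 72 hours with final DMSO typically 0.2%. Viability was read by CellTiter-Glo 2.0 luminescence and scaled between blank-well and DMSO-well means. The single-agent IC50 was fitted from dose responses using a logistic curve in a non-linear mixed effects model, and that logistic curve had two parameters.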

AZD1390 = compound: CC(C)n1c(=O)n(C)c2cnc3cc(F)c(-c4ccc(OCCCN5CCCCC5)nc4)cc3c21 [AZD1390]; conditions: max 0.3 µM
Method in brief: as §1

AZD5153 = compound: COc1nnc2ccc(N3CCC(c4ccc(OCCN5CCN(C)C(=O)[C@H]5C)cc4)CC3)nn12 [AZD5153]; conditions: max 1 µM
Method in brief: as §1

SG3199 = compound: CC1=CN2[C@@H](C1)C=NC3=CC(=C(C=C3C2=O)OC)OCCCCCOC4=C(C=C5C(=C4)N=C[C@@H]6CC(=CN6C5=O)C)OC [SG3199]; conditions: max 0.001 µM
Method in brief: as §1

Gefitinib = compound: COc1cc2ncnc(Nc3ccc(F)c(Cl)c3)c2cc1OCCCN1CCOCC1 [Gefitinib]; conditions: max 10 µM
Method in brief: as §1

AZD8186 = compound: C[C@@H](Nc1cc(F)cc(F)c1)c1cc(C(=O)N(C)C)cc2c(=O)cc(N3CCOCC3)oc12 [AZD8186]; conditions: max 3 µM
Method in brief: as §1

AZD0156 = compound: CN(C)CCCOc1ccc(-c2ccc3ncc4c(c3c2)n(C2CCOCC2)c(=O)n4C)cn1 [AZD0156]
Method in brief: as §1

Capivasertib = compound: C1CN(CCC1(C(=O)N[C@@H](CCO)C2=CC=C(C=C2)Cl)N)C3=NC=NC4=C3C=CN4 [Capivasertib]; conditions: max 10 µM
Method in brief: as §1

Crizotinib = compound: C[C@@H](Oc1cc(-c2cnn(C3CCNCC3)c2)cnc1N)c1c(Cl)ccc(F)c1Cl [Crizotinib]; conditions: max 10 µM
Method in brief: as §1

Lapatinib = compound: CS(=O)(=O)CCNCc1ccc(-c2ccc3ncnc(Nc4ccc(OCc5cccc(F)c5)c(Cl)c4)c3c2)o1 [Lapatinib]; conditions: max 10 µM
Method in brief: as §1

Dasatinib = compound: CC1=C(C(=CC=C1)Cl)NC(=O)C2=CN=C(S2)NC3=CC(=NC(=N3)C)N4CCN(CC4)CCO [Dasatinib]; conditions: max 2 µM
Method in brief: as §1

Doxorubicin = compound: COc1cccc2c1C(=O)c1c(O)c3c(c(O)c1C2=O)C[C@@](O)(C(=O)CO)C[C@@H]3O[C@H]1C[C@H](N)[C@H](O)[C@H](C)O1 [Doxorubicin]; conditions: max 1 µM
Method in brief: as §1

AZD2811 = compound: CCN(CCO)CCCOc1ccc2c(Nc3cc(CC(=O)Nc4cccc(F)c4)[nH]n3)ncnc2c1 [AZD2811]; conditions: max 1 µM
Method in brief: as §1

AZD5991 = compound: Cc1c2c(nn1C)CSCc1cc(n(C)n1)CSc1cc(c3ccccc3c1)OCCCc1c(C(=O)O)n(C)c3c-2c(Cl)ccc13 [AZD5991]; conditions: max 1 µM
Method in brief: as §1

AZD4320 = compound: CN(CC[C@H](CSC1=CC=CC=C1)NC2=C(C=C(C=C2)S(=O)(=O)NC(=O)C3=CC=C(C=C3)N4CCC(CC4)[C@H](C5=CC=CC=C5C6=CC=C(C=C6)Cl)O)S(=O)(=O)C(F)(F)F)CCO [AZD4320]; conditions: max 1 µM
Method in brief: as §1

Savolitinib = compound: C[C@@H](c1ccc2nccn2c1)n1nnc2ncc(-c3cnn(C)c3)nc21 [Savolitinib]; conditions: max 1 µM
Method in brief: as §1

Olaparib = compound: O=C(c1cc(Cc2n[nH]c(=O)c3ccccc23)ccc1F)N1CCN(C(=O)C2CC2)CC1 [Olaparib]; conditions: max 10 µM
Method in brief: as §1

Prexasertib = compound: COc1cccc(OCCCN)c1-c1cc(Nc2cnc(C#N)cn2)n[nH]1 [Prexasertib]; conditions: max 1 µM
Method in brief: as §1

Palbociclib = compound: CC(=O)c1c(C)c2cnc(Nc3ccc(N4CCNCC4)cn3)nc2n(C2CCCC2)c1=O [Palbociclib]; conditions: max 10 µM
Method in brief: as §1

Taselisib = compound: Cc1nc(-c2cn3c(n2)-c2ccc(-c4cnn(C(C)(C)C(N)=O)c4)cc2OCC3)n(C(C)C)n1 [Taselisib]; conditions: max 10 µM
Method in brief: as §1

Selumetinib = compound: Cn1cnc2c(F)c(Nc3ccc(Br)cc3Cl)c(C(=O)NOCCO)cc21 [Selumetinib]; conditions: max 10 µM
Method in brief: as §1

SN-38 = compound: CCc1c2c(nc3ccc(O)cc13)-c1cc3c(c(=O)n1C2)COC(=O)[C@]3(O)CC [SN-38]; conditions: max 0.3 µM
Method in brief: as §1

Alisertib = compound: COc1cc(Nc2ncc3c(n2)-c2ccc(Cl)cc2C(c2c(F)cccc2OC)=NC3)ccc1C(=O)O [Alisertib]; conditions: max 10 µM
Method in brief: as §1

AZD1775 = compound: C=CCn1c(=O)c2cnc(Nc3ccc(N4CCN(C)CC4)cc3)nc2n1-c1cccc(C(C)(C)O)n1 [AZD1775]
Method in brief: as §1

AZD7648 = compound: Cc1cc2ncnn2cc1Nc1ncc2c(n1)n(C1CCOCC1)c(=O)n2C [AZD7648]; conditions: max 10 µM
Method in brief: as §1

AZD6738 = compound: C[C@@H]1COCCN1C2=NC(=NC(=C2)C3(CC3)[S@](=N)(=O)C)C4=C5C=CNC5=NC=C4 [AZD6738]; conditions: max 10 µM
Method in brief: as §1

Venetoclax = compound: CC1(C)CCC(CN2CCN(c3ccc(C(=O)NS(=O)(=O)c4ccc(NCC5CCOCC5)c([N+](=O)[O-])c4)c(Oc4cnc5[nH]ccc5c4)c3)CC2)=C(c2ccc(Cl)cc2)C1 [Venetoclax]; conditions: max 1 µM
Method in brief: as §1

Row | Cell Line | IC50, cell viability 72 h (Trametinib) [µM] | IC50, cell viability 72 h (AZD1390) [µM] | IC50, cell viability 72 h (AZD5153) [µM] | IC50, cell viability 72 h (SG3199) [µM] | IC50, cell viability 72 h (Gefitinib) [µM] | IC50, cell viability 72 h (AZD8186) [µM] | IC50, cell viability 72 h (AZD0156; max 3 µM) [µM] | IC50, cell viability 72 h (Capivasertib) [µM] | IC50, cell viability 72 h (Crizotinib) [µM] | IC50, cell viability 72 h (Lapatinib) [µM] | IC50, cell viability 72 h (Dasatinib) [µM] | IC50, cell viability 72 h (Doxorubicin) [µM] | IC50, cell viability 72 h (AZD2811) [µM] | IC50, cell viability 72 h (AZD5991) [µM] | IC50, cell viability 72 h (AZD4320) [µM] | IC50, cell viability 72 h (Savolitinib) [µM] | IC50, cell viability 72 h (Olaparib) [µM] | IC50, cell viability 72 h (Prexasertib) [µM] | IC50, cell viability 72 h (Palbociclib) [µM] | IC50, cell viability 72 h (Taselisib) [µM] | IC50, cell viability 72 h (Selumetinib) [µM] | IC50, cell viability 72 h (SN-38) [µM] | IC50, cell viability 72 h (Alisertib) [µM] | IC50, cell viability 72 h (AZD1775; max 3 µM) [µM] | IC50, cell viability 72 h (AZD7648) [µM] | IC50, cell viability 72 h (AZD6738) [µM] | IC50, cell viability 72 h (Venetoclax) [µM] | IC50, cell viability 72 h (AZD0156; max 1 µM) [µM] | IC50, cell viability 72 h (AZD1775; max 1 µM) [µM]
1 | NB1 (Neuroblastoma) | > 1 | > 0.3 | > 1 | > 0.001 | > 10 | > 3 | > 3 | 5.18 | 0.628 | > 10 | > 2 | > 1 | 0.186 | > 1 | > 1 | > 1 | > 10 | 0.184 | > 10 | 1.2 | > 10 | 0.024 | > 10 | 1.36 | > 10 | 4.73 | > 1 | – | –
2 | NCI-H1341 (Small Cell Lung Carcinoma) | > 1 | > 0.3 | 0.739 | > 0.001 | > 10 | > 3 | > 3 | 9.05 | > 10 | > 10 | > 2 | 0.587 | > 1 | > 1 | 0.0593 | > 1 | > 10 | 0.0471 | > 10 | 0.684 | > 10 | 0.0138 | 0.91 | 1.24 | > 10 | 6.03 | > 1 | – | –
3 | NCI-H1963 (Small Cell Lung Carcinoma) | > 1 | > 0.3 | 0.0993 | > 0.001 | > 10 | > 3 | – | > 10 | 3.04 | > 10 | > 2 | 0.83 | 0.0361 | > 1 | 0.0152 | > 1 | > 10 | 0.0443 | 6.9 | 9.65 | 8.82 | 0.0367 | 0.208 | – | > 10 | 2.73 | 0.614 | > 1 | 0.525
4 | NCI-H2373 (Mesothelioma) | > 1 | > 0.3 | > 1 | > 0.001 | > 10 | > 3 | > 3 | > 10 | > 10 | > 10 | > 2 | 0.313 | > 1 | > 1 | > 1 | > 1 | > 10 | > 1 | > 10 | 3.52 | > 10 | 0.0589 | > 10 | > 3 | > 10 | > 10 | > 1 | – | –
